“And” between values parts separate entries of the source, which are not always exact repeats. Identical values can stand only once.

Data set [1] concerns UUO model of kidney fibrosis. Nature of the data set: UUO model: collagen area fraction of kidney tissue (picrosirius red histology). The note with it: Table N, 25070 20 mg/kg s.c. In kind it is in vivo, mice. The procedure: (§1) Control treatment groups included UUO only (sham) and UUO with PBS administered subcutaneously. An additional control group included UUO with Tween-MC/20 carrier perorally. 25070 administered subcutaneously at dose of 20 mg/kg at 5 days prior to, 2 days prior to, and 3 days after, the UUO procedure. Irbesartan was administered perorally on daily on days 0 through 7 following the UUO procedure. Animals were sacrificed on Day 10 following the UUO procedure. Kidney tissue was collected for measurement of collagen 1A1 and collagen 3A1 expression.
The ‘collagen area fraction’ is measured histologically through quantitative image processing of the area of kidney tissue that is stained red by the picrosirius red stain; the percent detected as red is normalized by the area of kidney section.

Data set [2] relates to UUO model of kidney fibrosis. Nature of the data set: Unilateral ureteral obstruction (UUO) model of kidney fibrosis: kidney collagen 1A1 and collagen 3A1 expression by real-time PCR. The note with it: UUO. The data set is classed as in vivo, mice. The procedure: Unilateral ureteral obstruction (UUO) is a well-established experimental model of renal injury leading to interstitial fibrosis, and thus is used as an experimental model that is reflective of human kidney disease. UUO is induced by surgically ligating a single ureter. As fibrosis is characterized by an increase in collagen, the presence and extent of kidney fibrosis may be determined by measuring collagen content. Both collagen 1A1 (Col 1A1) and collagen 3A1 (Col 3A1) are measured to assess collagen content. Kidney fibrosis may be visualized by staining tissue samples with picro-sirius red to detect increases in collagen content. Kidney fibrosis may also be observed by measuring the amount of hydroxyproline, which is a major component of collagen, in a sample.
The cEt-containing anti-miR-21 compounds found to be active in the luciferase assay were tested in the UUO model of kidney fibrosis. 25919 comprising 2′-MOE and 2′-fluoro modifications is known to inhibit miR-21 activity in vivo and was included as a positive control. Groups of 8 animals each were treated as follows: UUO only, UUO with PBS, or UUO with anti-miR-21 compound. Relative to the day of the UUO procedure, PBS or anti-miR-21 compound was administered at days −3, −1, and +5. Anti-miR-21 compounds were administered at a dose of 20 mg/kg. As the anti-miR compounds were administered prior to the UUO procedure, this dosing regimen is considered a prophylactic treatment. At day 11, animals were sacrificed and kidney was isolated for measurement of collagen expression. Collagen expression was measured by real-time PCR and normalized first to GAPDH and then to the sham control animals.
The UUO study was repeated to confirm the activity of 25070. The anti-miR was administered subcutaneously at a dose of 20 mg/kg.
as §1
Compounds 25220 and 25221, as well as 25923, were tested in the UUO model for their effects on fibrosis. Groups of 8 animals each were treated as follows: sham surgery, UUO with PBS, UUO with 25220, UUO with 25221, or UUO with 25923. Relative to the day of the UUO procedure, PBS or anti-miR-21 compound was administered at days −5, −3, and +3. Anti-miR-21 compounds were administered at a dose of 20 mg/kg. As the anti-miR compounds were administered prior to the UUO procedure, this dosing regimen is considered a prophylactic treatment. At day 10, animals were sacrificed and kidney was isolated for measurement of collagen expression. Collagen expression was measured by real-time PCR and normalized to GAPDH.

Data set [3] concerns ischemia reperfusion injury/nephrectomy (IR/Nx) model. Nature of the data set: Ischemia reperfusion injury/nephrectomy (IR/Nx) model: urinary albumin to creatinine ratio. The note with it: for geometric mean of the urinary albumin to creatinine ratio: 20 mg/kg subcutaneously on days 2, 3, 4, and 8, urine on day 9. In kind it is in vivo, mouse. From the text:
An ischemia reperfusion injury/nephrectomy (IR/Nx) model is created in the mouse through temporary unilateral clamping of an artery in one kidney, which leads to tubule damage, inflammation, and fibrosis, followed by removal of the second kidney at a later timepoint. In this model, the acute kidney dysfunction phase is useful to test candidate agents for the treatment of acute kidney injury (i.e. up to about the first 5 days), and the later phases of kidney dysfunction are useful to model chronic fibrosis (i.e. after about the first 5 days).
Unilateral IR was induced for a period of 30 minutes. Treatment groups were as follows: sham IR procedure; IR with PBS administered subcutaneously; IR with mismatched control 25109 administered subcutaneously at a dose of 20 mg/kg; IR with anti-miR-21 compound 25070 administered subcutaneously at a dose of 20 mg/kg; and IR with anti-miR-21 compound 25923 administered subcutaneously at a dose of 20 mg/kg. PBS or anti-miR was administered on days 2, 3, 4, and 8 following IR. On day 8, the healthy kidney was removed by nephrectomy from each animal, and animals were sacrificed on day 9. Just prior to sacrifice, urine was collected by direct bladder puncture.
Urinary albumin to creatinine ratio was measured in the urine from each mouse. […] The geometric mean of the albumin to creatinine ratio in each group of mice was 16 μgAlb/mgCr (nephrectomy-only control), 127 μgAlb/mgCr (IR/Nx, PBS control), 140 μgAlb/mgCr (IR/Nx, 25109 control), 40 μgAlb/mgCr (IR/Nx, 25070), and 31 μgAlb/mgCr (IR/Nx, 25923). Blood urea nitrogen and serum creatinine levels were similar across all IR/Nx mice, and were elevated relative to nephrectomy-only control mice (data not shown).

A further data set relates to miR-21. Nature of the data set: miR-21 luciferase sensor assay in Hela cells. The data set is classed as cell-based. The procedure: The compounds were assessed for miR-21 inhibitory activity in a luciferase assay. A microRNA luciferase sensor construct was engineered using pGL3-MCS2 (Promega). The construct was introduced into Hela cells to test the ability of anti-miR compounds to inhibit activity of miR-21. In this assay, miR-21 present in the Hela cells binds to its cognate site(s) in the luciferase sensor construct, and suppresses luciferase expression. When the appropriate anti-miR is introduced into the cells, it binds to miR-21 and relieves suppression of luciferase expression. Thus, in this assay anti-miRs that are effective inhibitors of miR-21 expression will cause an increase in luciferase expression.
Hela cells (ATCC), stably transfected with a luciferase construct engineered to contain a sequence complementary of miR-21, were seeded in T-170 flasks (BD Falcon) at 3.5*10^6 cells/flask. Hela cells were grown in Dulbecco's Modified Eagle Medium with High Glucose (Invitrogen).
Each flask of Hela cells was transfected with 0.5 ug of a phRL sensor plasmid (Promega) expressing Renilla to be used in normalization. Hela cells were transfected using 20 ul Lipofectamine 2000/flask (Invitrogen). After 4 hours of transfection, cells were washed with PBS and trypsinized Hela cells were plated at 40 k/well in 24 well plates (BD Falcon) and left overnight.
Hela cells were transfected with anti-miRs using Lipofectin (Invitrogen) at 2.5 ul Lipofectin/100 nM ASO/ml Opti-MEM I Reduced Serum Medium (Invitrogen) for 4 hours. After ASO transfection, Hela cells were refed with Dulbecco's Modified Eagle Medium with High Glucose (Invitrogen).
Hela cells are passively lysed and luciferase activity measured using the Dual-Luciferase Reporter Assay System (Promega).
The luciferase assay was performed to test the ability of anti-miRs with the nucleoside patterns described herein to inhibit the activity of miR-21. Results were compared to a ‘mock’ treatment, in which cells received no anti-miR treatment. The experiment was repeated and results of two experimental replicates are shown in the following Table B, as the luciferase value normalized to beta-galactosidase activity.
The luciferase assay was performed as described herein to test the ability of anti-miRs in Table F to inhibit the activity of miR-21. Results were compared to a ‘mock’ treatment, in which cells received no anti-miR treatment. The experiment was repeated and results of two experimental replicates are shown in the following Table D, as fold change in luciferase value relative to the mock treatment.

[4] abbreviates: Table M, individual animals, 25070 20 mg/kg s.c. 5 and 2 days prior to and 3 days after UUO, irbesartan PO daily days 0-7, sacrifice Day 10, 20 mg/kg.
Where [5] appears, read: 20 mg/kg at days -5, -3, +3, kidney at day 10.

For `CCCCC1=NC2(CCCC2)C(=O)N1Cc1ccc(-c2ccccc2-c2nnn[nH]2)cc1` [irbesartan, reference compound], the “Collagen Area Fraction (%) Mean” value in data set [1] (group mean, irbesartan PO, Day 10, UUO-PBS 11.1, Tween/MC vehicle 8.0) is on record as 8.0%. In addition, the “Collagen Area Fraction (%)” value in data set [1] (individual animals, irbesartan PO daily days 0-7, Day 10, picrosirius red, 20 mg/kg) is 6.105% and 7.481% and 15.877% and 7.914% and 6.614% and 5.706% and 7.798% and 6.154%. In addition, the “Collagen 3A1 (Normalized Expression) Mean” value in data set [2] (Table M, group mean, 25070 20 mg/kg s.c., irbesartan PO daily days 0-7, Day 10, UUO-PBS 93.2, Tween/MC vehicle 132.4) is given as 73.2. Besides, the “Collagen 1A1 (Normalized Expression) Mean” value in data set [2] (Table M, group mean, 25070 20 mg/kg s.c., irbesartan PO daily days 0-7, Day 10, UUO-PBS 129.6, Tween/MC vehicle 150.2) came to 117.8. In data set [2] (setting [4]), the “Collagen 1A1 (Normalized Expression)” value is 125.4 and 86.7 and 106.6 and 110.7 and 198.3 and 92.2 and 118.1 and 104.1; the “Collagen 3A1 (Normalized Expression)” value is 65.5 and 63.8 and 63.2 and 50.8 and 63.6 and 82.8 and 122.5. Further, in data set [2] (comparison with irbesartan, sacrifice Day 10), the “reduction in Col3a1 expression (significance)” value was “statistically significant reductions”. The “reduction in Col1A1 expression relative to saline-treated animals (significance)” value in data set [2] (comparison with irbesartan, sacrifice Day 10, p<0.05 by one-way ANOVA) was “did not yield a statistically significant reduction”.

Turning to “AEASATCSTGTCSTCAUSAATASAAE [Compound 25109, reference compound]”, in data set [3], the “geometric mean of the urinary albumin to creatinine ratio” value is given as 140 μgAlb/mgCr.

Turning to “AECSATCSAGTCSTGAUSAAGCSTAS (antisense ACATCAGTCTGATAAGCTA; cEt and 2'-MOE nucleosides, code letters not given here, further chemistry not given here) [Compound 25923, variation of 25070: 3′-terminal nucleoside is a cEt nucleoside rather than 2′-MOE nucleoside]”, in data set [2] (setting [5]), the “collagen 1A1 expression (FIG. 2A, in words)” value was “reduced collagen 1A1 and collagen 3A1 expression by a stastically significant amount”. Also, the “collagen 3A1 expression (FIG. 2B, in words)” value in data set [2] (setting [5]) is “reduced collagen 1A1 and collagen 3A1 expression by a stastically significant amount”. Moreover, the “reduction in urinary albumin to creatinine ratio (significance)” value in data set [3] (20 mg/kg subcutaneously on days 2, 3, 4, and 8) was “statistically significant reductions”. Besides, the “geometric mean of the urinary albumin to creatinine ratio” value in data set [3] stood at 31 μgAlb/mgCr. The “inhibition of miR-21 activity in the luciferase assay (in words)” value in the data set with miR-21 (Hela cells) is recorded as “inhibition of miR-21 in a dose-dependent manner”. Further, the “fold change in luciferase value relative to the mock treatment” value in the data set with miR-21 (concentration of anti-miR compound 0.2 (unit not given)) stood at 1.06 fold change; in the data set on miR-21 (concentration of anti-miR compound 0.6 (unit not given)) it was 1.01 fold change; in the data set with miR-21 (concentration of anti-miR compound 1.9 (unit not given)), 1.10 fold change; in the data set with miR-21 (concentration of anti-miR compound 5.6 (unit not given)), 5.18 fold change; in the data set on miR-21 (concentration of anti-miR compound 16.7 (unit not given)), 11.34 fold change; with miR-21 (concentration of anti-miR compound 50.0 (unit not given)) it was 10.81 fold change.

The values are drawn from patent publication US20120270928A1, “MICRORNA COMPOUNDS AND METHODS FOR MODULATING MIR-21 ACTIVITY” (REGULUS THERAPEUTICS INC., priority 2011, published 2012).
